{"source": "paper PMC10537229", "about": "“Antimicrobial Peptides Originating from Expression Libraries of Aurelia aurita and Mnemiopsis leidyi Prevent Biofilm Formation of Opportunistic Pathogens” (Microorganisms, 2023)", "key": {"[1]": {"tested_on": "P. aeruginosa PAO1", "test": "Biofilm prevention in vitro assay (crystal violet, static)", "format": "cell-based, Pseudomonas aeruginosa", "conditions": "18 h", "protocol": "(§1) The opportunistic pathogenic bacteria K. oxytoca (DSM 7342, M5a1-type strain), P. aeruginosa PAO1 (DSM 1707, pathogenic-type strain), S. epidermidis RP62A (DSM 28319, clinical isolate from catheter sepsis), and S. aureus (DSM 11823, clinical isolate) were grown in 5 mL LB medium overnight at below-indicated temperatures. The cell concentrations of the overnight cultures were analyzed with Neubauer cell counting and set to 3 × 10^8 cells/mL using GC minimal medium (with 1% (v/v) glycerol and 0.3% (w/v) casamino acids) for K. oxytoca and Caso bouillon (17 g/L casein peptone, 3 g/L soybean peptone, 5 g/L NaCl, 2.5 g/L K2HPO4, and 2.5 g/L glucose) for the remaining strains in the crystal violet assay. Cultures were aliquoted in 96-well plates (180/195 µL for each cavity). Cell-free size-fractionated cell extracts (20 µL) and synthesized peptides (various concentrations, 5 µL) were added to the cultures. MTPs were closed with gas-permeable membranes (Breathe-Easy®, Diversified Biotech, Dedham, MA, USA) and incubated at 37 °C (P. aeruginosa, S. aureus, and S. epidermidis) or 30 °C (K. oxytoca) for 18 h without shaking. Three biological replicates were performed, each with eight technical replicates. Medium controls were performed for normalization. Biofilm formation was monitored and quantified using the crystal violet assay. Following an 18 h incubation period, the cell cultures were removed, and the wells underwent two washes with H2O. Biofilms that developed and adhered to the surfaces were subjected to staining using 200 μL of a 0.1% crystal violet solution (Carl Roth, Karlsruhe, Germany) for 10 min at room temperature (RT). The stained biofilms were left to air dry after eliminating the crystal violet solution through two H2O washes. A total of 200 μL of 96% ethanol was introduced into each stained well to solubilize the dye, and incubation at RT for 15 min followed. Biofilm formation was assessed by measuring the absorbance of resolved crystal violet at 590 nm with the plate reader Spectra max Plus 384 (Molecular Devices, Ismaning; Germany). The screening procedure is depicted in Figure S1."}, "[2]": {"tested_on": "K. oxytoca", "test": "Biofilm prevention in vitro assay (crystal violet, static)", "format": "cell-based, Klebsiella oxytoca", "conditions": "synthetic peptide at highest concentration 112.5 µg/mL, 18 h, versus biofilm control (100%)", "protocol": "as §1"}, "[3]": {"tested_on": "P. aeruginosa", "test": "Growth of planktonic-growing pathogens (turbidity at 600 nm)", "format": "cell-based, Pseudomonas aeruginosa", "conditions": "18 h", "protocol": "(§2) In addition, the potential growth-inhibiting effects of synthetic peptides were tested on planktonic-growing pathogens. Again, 3 × 10^8 cells/mL diluted in LB medium were aliquoted in 96-well plates (200 µL for each cavity). Synthetic peptides were added to two selected final concentrations of 3.5 µg/mL and 112.5 µg/mL at the beginning of the experiment. MTPs were closed with gas-permeable membranes and gently shaken at 80 rpm and 37 °C (P. aeruginosa, S. aureus, and S. epidermidis) or 30 °C (K. oxytoca) for 18 h. A comparative endpoint determination (growth control, peptide control IDR-1018, and identified peptides) of the turbidity at 600 nm was measured with plate reader Spectra max Plus 384. An unpaired t-test was conducted as a statistical hypothesis test to determine the significance (p-value) of growth differences."}, "[4]": {"tested_on": "S. epidermidis RP62A", "test": "Biofilm prevention in vitro assay (crystal violet, static)", "format": "cell-based, Staphylococcus epidermidis", "conditions": "synthetic peptide at highest concentration 112.5 µg/mL, 18 h, versus biofilm control (100%)", "protocol": "as §1"}, "[5]": {"tested_on": "K. oxytoca, P. aeruginosa, S. epidermidis, and S. aureus", "test": "Crystal violet biofilm assay, statements on all tested pathogens", "format": "cell-based", "conditions": "summary in discussion", "protocol": "as §1, with “Three biological replicates were performed, each with eight technical replicates. Medium controls were performed for normalization.” left out, “Following an 18 h incubation period, the cell cultures were removed, and the wells underwent two washes with H2O. Biofilms that developed and adhered to the surfaces were subjected to staining using 200 μL of a 0.1% crystal violet solution (Carl Roth, Karlsruhe, Germany) for 10 min at room temperature (RT). The stained biofilms were left to air dry after eliminating the crystal violet solution through two H2O washes. A total of 200 μL of 96% ethanol was introduced into each stained well to solubilize the dye, and incubation at RT for 15 min followed.” left out, “The screening procedure is depicted in Figure S1.” left out"}, "[6]": {"tested_on": "K. oxytoca", "test": "Growth of planktonic-growing pathogens (turbidity at 600 nm)", "format": "cell-based, Klebsiella oxytoca", "conditions": "112.5 µg/mL peptide, LB, 18 h, 80 rpm, 30 °C; mean of 2 biological x 8 technical replicates; control 1.21326667", "protocol": "as §2"}, "[7]": {"tested_on": "S. epidermidis", "test": "Growth of planktonic-growing pathogens (turbidity at 600 nm)", "format": "cell-based, Staphylococcus epidermidis", "conditions": "18 h", "protocol": "as §2"}, "[8]": {"tested_on": "K. oxytoca M5aI", "test": "Dynamic biofilm formation in microfluidic flow cell (Syto9, CLSM)", "format": "cell-based, Klebsiella oxytoca", "conditions": "peptide 10 ng/channel, GC medium, flow 15 µL/h, 24 h, 30 °C, mean ± SD of four biological x four technical replicates", "excerpt": "The microfluidic flow cell system comprises a polymethyl methacrylate corpus with a single channel (1 × 8 × 0.1 mm). Two inlets and one outlet exist. A borosilicate glass (24 × 60 × 0.17 mm; Carl Roth, Karlsruhe, Germany) was fixed with the adhesive Black-Seal silicone (Weicon, Münster, Germany). Microliter syringes (Innovative Labor System GmbH, Stützenbach, Germany) were connected via polytetrafluoroethylene (PTFE) tubes (0.3 mm × 0.6 mm) (Bola, Grünsfeld, Germany) with the in- and outlets and clamped into a syringe pump (Model: 220) (KD Scientific, Holliston, MA, USA). The channel was sterilized by rinsing 70% EtOH for 24 h at a flow rate of 20 µL/h. Afterwards, the remaining ethanol was washed out with sterile water at 20 μL/h for 1 h. Subsequently, the channel was equilibrated with GC medium at 20 μL/h for 2 h. Inoculation was conducted with a cell suspension of 1 × 10^9 cells/mL, generated from an overnight culture of K. oxytoca M5aI. Initial cell adhesion was ensured by incubation at 30 °C for 1 h without any flow. Next, the channel was continuously rinsed at 15 μL/h with GC medium injected within the first inlet. The synthetic peptides IDR-1018 (biofilm-preventing control peptide, [47, 48], BiP_Aa_2, BiP_Aa_5, and BiP_Aa_6 were diluted in GC medium to a concentration of 25 µg/mL and injected within the second inlet. Thus, the final peptide concentration was 12.5 µg/mL, corresponding to 10 ng peptide within the 0.8 µL channel. Biofilm formation was conducted at a flow rate of 15 µL/h for 24 h at 30 °C. The biofilm formation of K. oxytoca M5aI was further studied without adding peptides. Four biological replicates were conducted for each treatment.\nBiofilms were stained with the fluorescent dye Syto9 (488 nm) (Life Technologie, Carlsbad, CA, USA) and analyzed using the LSM 700 confocal laser scanning microscope (Zeiss, Oberkochen, Germany). Therefore, the microfluidic flow cells were washed with GC medium at 3 µL/min for 15 min. The channel was then filled with a 1:1000 dilution of the fluorescent dye Syto9 and incubated in the dark at RT for 30 min. Dye residues were removed by rinsing GC medium at 3 μL/min for 15 min. Four image stacks were recorded per flow cell with optical sections of 0.9 µm per z-step. The digital image acquisition, three-dimensional reconstruction, and calculation of the biofilm parameters were performed with the software “Zen Black” (version 14.0.22.201) (Zeiss, Oberkochen, Germany) and the microscopy image analysis software “Imaris” (version 9.9.0) (Oxford Instruments, Abingdon, UK)."}, "[9]": {"tested_on": "S. aureus", "test": "Growth of planktonic-growing pathogens (turbidity at 600 nm)", "format": "cell-based, Staphylococcus aureus", "conditions": "18 h", "protocol": "as §2"}, "[10]": {"conditions": "112.5 µg/mL, versus control without peptide"}}}
{"sequence": "VRNSVLFRRRRLVC [BiP_Aa_5, synthetic peptide from sORF of A. aurita EST clone 127_8F]", "values": [{"measurement": "effect on P. aeruginosa biofilm formation (in words)", "setting": "[1]; synthetic peptide 0.4-112.5 µg/mL", "result": "slight interference"}, {"measurement": "reduction of P. aeruginosa biofilm formation at 112.5 µg/mL", "setting": "[1]; synthetic peptide at highest dose 112.5 µg/mL, versus biofilm control (100%)", "result": 47, "unit": "%"}, {"measurement": "reduction of K. oxytoca biofilm formation at 112.5 µg/mL", "setting": "[2]", "result": 54, "unit": "%"}, {"measurement": "turbidity (600 nm), P. aeruginosa", "setting": "[3]; 112.5 µg/mL peptide, LB, 80 rpm, 37 °C, mean of 2 biological x 8 technical replicates, control 1.2788369", "result": 1.249}, {"measurement": "reduction of planktonic growth of P. aeruginosa", "setting": "[3]; [10]", "result": "1.5–5%"}, {"measurement": "reduction of S. epidermidis biofilm formation at 112.5 µg/mL", "setting": "[4]", "result": 22, "unit": "%"}, {"measurement": "reduction of biofilm masses, all tested pathogens", "setting": "[5]", "result": "up to 50%"}, {"measurement": "turbidity (600 nm), K. oxytoca", "setting": "[6]", "result": 1.257}, {"measurement": "turbidity (600 nm), S. epidermidis", "setting": "[7]; 112.5 µg/mL peptide, LB, 80 rpm, 37 °C, mean of 2 biological x 8 technical replicates, control 1.3398", "result": 1.301}, {"measurement": "reduction of planktonic growth of S. epidermidis", "setting": "[7]; [10]", "result": 3, "unit": "%"}, {"measurement": "biofilm thickness", "setting": "[8]; medium control 11 ± 6 µm", "result": "7 ± 2", "unit": "µm"}, {"measurement": "biofilm volume", "setting": "[8]; medium control 112 ± 62 µm^3", "result": "51 ± 25", "unit": "µm^3"}, {"measurement": "turbidity (600 nm), S. aureus", "setting": "[9]; 112.5 µg/mL peptide, LB, 80 rpm, 37 °C, mean of 2 biological x 8 technical replicates, control 1.37192917", "result": 1.312}, {"measurement": "reduction of planktonic growth of S. aureus", "setting": "[9]; [10]", "result": "1.5–5%"}]}
